Test results as given in patent US12559480B2, “Methods of treatment using phenyl indole allosteric inhibitors of P97 ATPase” (University of Pittsburgh—Of the Commonwealth System of …, priority 2015, dated 2026).

Molecular target: p97 ATPase WT (Homo sapiens (Human), UniProt P55072)
Assay: p97 ADP-Glo assay
Assay type: biochemical
Settings: Table 3
Source text: ADP-Glo™ (Promega Corp.) is a bioluminescent, homogeneous assay that measures ADP formed from a biochemical reactions. Because of its high sensitivity, the assay is suitable for monitoring enzyme activities at very early substrate conversions requiring very low amount of enzymes.
The ADP-Glo assay can be conducted as described in Chou, T.-F.; Bulfer, S. L.; Weihl, C.

p97 ATPase WT, sequence (P55072 whole entry): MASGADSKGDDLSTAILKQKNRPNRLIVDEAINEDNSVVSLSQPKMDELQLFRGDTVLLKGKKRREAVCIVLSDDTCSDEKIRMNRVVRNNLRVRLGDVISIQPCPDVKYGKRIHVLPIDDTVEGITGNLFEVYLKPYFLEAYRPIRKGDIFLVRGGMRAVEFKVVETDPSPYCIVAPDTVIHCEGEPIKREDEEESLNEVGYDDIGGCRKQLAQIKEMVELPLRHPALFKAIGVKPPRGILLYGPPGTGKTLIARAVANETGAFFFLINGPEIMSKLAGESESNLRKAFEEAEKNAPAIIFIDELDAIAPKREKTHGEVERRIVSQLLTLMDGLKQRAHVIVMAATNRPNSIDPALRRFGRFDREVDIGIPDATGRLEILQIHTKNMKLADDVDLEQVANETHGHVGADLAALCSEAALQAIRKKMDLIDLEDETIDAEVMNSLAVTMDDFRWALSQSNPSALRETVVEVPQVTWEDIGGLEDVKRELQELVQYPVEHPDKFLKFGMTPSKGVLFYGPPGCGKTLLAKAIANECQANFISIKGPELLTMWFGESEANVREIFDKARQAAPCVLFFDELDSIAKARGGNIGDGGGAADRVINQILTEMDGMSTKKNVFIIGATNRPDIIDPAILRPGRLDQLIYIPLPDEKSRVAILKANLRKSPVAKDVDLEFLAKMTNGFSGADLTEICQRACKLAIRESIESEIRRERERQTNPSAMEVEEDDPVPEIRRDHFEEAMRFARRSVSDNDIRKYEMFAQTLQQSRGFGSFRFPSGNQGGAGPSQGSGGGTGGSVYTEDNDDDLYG

With CC(C)N1CCC(NC2CCN(c3cccc(-c4cc5cc(C#N)ccc5[nH]4)c3)CC2)CC1 as the molecule, how does the IC50 read?
The IC50 was 6.2 µM.
